Like-named read-outs stand apart in the source and are kept apart here.
What was measured:
Assay in all cases: cells
Type in all cases: cell-based
Parameters in all cases: Percent inhibition compared to vehicle: concentration or dose not given beside the values
[1] = test system: MCF-7 cells stably expressing UbC HA-ER-α L536R; details: for EC50: Homo sapiens, MCF7, UbC HA-ER-α L536R, read-out: Potency (EC50; nM); for Percent inhibition compared to vehicle / Efficacy (Emax): UbC HA-ER-α L536R; for Percent inhibition compared to vehicle: 5-Day Incubation; for Efficacy (Emax): Day 5 relative to Day 0
Text: (§1) MCF-7 Mutant ER-α Stable Cell Line Generation: MCF-7 cells stably expressing wild-type or ER-α mutants were generated by subcloning ESR1 wild-type and mutant cDNAs containing an amino terminal hemagglutinin tag into pCDH-EF1-MCS-(PGK-Puro) (referred to as EF1 HA-ER-α) and pCDH-UbC-MCS-EF1-Hygro (referred to as UbC HA-ER-α) (System Biosciences). The resulting plasmids, in addition to an empty vector negative control, were subsequently cotransfected into HEK293T cells with the pPACKH1 packaging plasmid mix (System Biosciences) according to the manufacturer's protocol. Four days post transfection lentiviral particles were purified from the cell medium, tiered and stored at −80° C. MCF-7 cells were transduced with the purified viral particles and stable cell lines were selected by growth in RPMI containing 10% FBS plus 1 μG/mL puromycin or 200 μG/mL hygromycin for pCDH-EF1-MCS-(PGK-Puro) and pCDH-UbC-MCS-EF1-Hygro, respectively.
(§2) MCF-7 Stable Cell Line Viability: MCF-7 cells were enumerated with a hemacytometer adjusted to a concentration of 40,000 cells per mL in Phenol Free RPMI containing 10% CSS with NEAA and Sodium Pyruvate. 16 microliters of the cell suspension was added to each well of a 384 well tissue culture treated white clear bottom polystyrene plate (Corning) using a Matrix 16 channel electronic pipette. The cells were incubated overnight to allow the cells to adhere. The following day, 16 microliters of Phenol Free RPMI containing 10% CSS with NEAA and Sodium Pyruvate was added to the wells of one plate, followed by 16 μL of CellTiter-Glo (Promega, Madison Wis.) luminescent cell viability reagent using a Matrix 16 channel electronic pipette. […] The “average” of the relative luminescence units (RLUs) of the wells are considered to be the baseline value at time=zero. In addition, a 10 point, 1:5 serial dilution in DMSO (Sigma-Aldrich) was performed using Matrix 12 channel electronic pipette, including DMSO only as […]. 4 μL of each dilution was then added to 196 μL of RPMI containing 10% CSS with NEAA and Sodium Pyruvate. 16 μL of medium containing compound was added to the cells at a final concentration ranging from 10 μM to 5 pM. Compound dilution in media and subsequent addition to cells were carried out using Matrix 12 channel electronic pipettes. After 5 day compound exposure, 16 μL of CellTiter-Glo (Promega, Madison Wis.) luminescent cell viability reagent was added to the cells using a Matrix 16 channel electronic pipette. CellTiter-Glo added to 32 μL of medium without cells was used to obtain a background value. […] The relative luminescence units (RLUs) of each well were measured, and relative proliferation (fold) of each sample was determined as follows: (RLU sample−RLU background)/(RLU at T=0)=relative proliferation
(§3) The UbC promoter is reported by the manufacturer (System Biosciences) to express low to moderate RNA levels while the EF1 promoter expresses high levels (System Biosciences).

[2] = test system: MCF-7 cells stably expressing EF1 HA-ER-α Y537N; details: for Percent inhibition compared to vehicle: 5-Day Incubation; for EC50: Homo sapiens, MCF7, EF1 HA-ER-α Y537N, read-out: Potency (EC50; nM)
Text: as §1, §2, §3

[3] = test system: MCF-7 cells stably expressing EF1 HA-ER-α E380Q; details: for Percent inhibition compared to vehicle / Efficacy (Emax): EF1 HA-ER-α E380Q; for Percent inhibition compared to vehicle: 5-Day Incubation; for Efficacy (Emax): Day 5 relative to Day 0; for EC50: Homo sapiens, MCF7, EF1 HA-ER-α E380Q, read-out: Potency (EC50; nM)
Text: as §1, §2, §3

[4] = test system: MCF-7 cells stably expressing UbC HA-ER-α E380Q; details: for EC50: Homo sapiens, MCF7, UbC HA-ER-α E380Q, read-out: Potency (EC50; nM); for Percent inhibition compared to vehicle / Efficacy (Emax): UbC HA-ER-α E380Q; for Percent inhibition compared to vehicle: 5-Day Incubation; for Efficacy (Emax): Day 5 relative to Day 0
Text: as §1, §2, §3

[5] = test system: MCF-7 cells stably expressing EF1 HA-ER-α L536P; details: for Percent inhibition compared to vehicle / Efficacy (Emax): EF1 HA-ER-α L536P; for Percent inhibition compared to vehicle: 5-Day Incubation; for Efficacy (Emax): Day 5 relative to Day 0; for EC50: Homo sapiens, MCF7, EF1 HA-ER-α L536P, read-out: Potency (EC50; nM)
Text: as §1, §2, §3

[6] = test system: MCF-7 cells stably expressing UbC HA-ER-α Y537N; details: for EC50: Homo sapiens, MCF7, UbC HA-ER-α Y537N, read-out: Potency (EC50; nM); for Percent inhibition compared to vehicle / Efficacy (Emax): UbC HA-ER-α Y537N; for Percent inhibition compared to vehicle: 5-Day Incubation; for Efficacy (Emax): Day 5 relative to Day 0
Text: as §1, §2, §3

[7] = test system: MCF-7 cells stably expressing UbC HA-ER-α L536P; details: for EC50: Homo sapiens
Text: as §1, §2, §3

[8] = test system: MCF-7 cells stably expressing EF1 HA-ER-α L536R; details: for Percent inhibition compared to vehicle / Efficacy (Emax): EF1 HA-ER-α L536R; for Percent inhibition compared to vehicle: 5-Day Incubation; for Efficacy (Emax): Day 5 relative to Day 0; for EC50: Homo sapiens, MCF7, EF1 HA-ER-α L536R, read-out: Potency (EC50; nM)
Text: as §1, §2, §3

`CC/C(=C(/c1ccc(/C=C/C(=O)O)cc1)c1ccc2[nH]ncc2c1)c1ccc(F)cc1Cl` [Compound 1-3, (E)-3-(4-((E)-2-(2-chloro-4-fluorophenyl)-1-(1H-indazol-5-yl)but-1-en-1-yl)phenyl)acrylic acid] was tested, and the EC50 ([1]; Agonist Mode, −E2) was 0.926 ± 0.428 nM, the EC50 ([1]; Antagonist Mode, +E2) was 6.96 ± 3.76 nM and the “Percent inhibition compared to vehicle” value ([1]; Agonist Mode, −E2) was 55%. The “Efficacy (Emax)” value ([1]; Agonist Mode, −E2) was 1.73 ± 0.22, the “Percent inhibition compared to vehicle” value ([1]; Antagonist Mode, +E2) was 71% and the “Efficacy (Emax)” value ([1]; Antagonist Mode, +E2) was 1.71 ± 0.10. The “Percent inhibition compared to vehicle” value ([2]; EF1 HA-ER-α Y537N, Agonist Mode, −E2) was 48%, the “Efficacy (Emax)” value ([2]; EF1 HA-ER-α Y537N, Agonist Mode, −E2, Day 5 relative to Day 0) was 3.11 ± 0.28 and the “Percent inhibition compared to vehicle” value ([2]; EF1 HA-ER-α Y537N, Antagonist Mode, +E2) was 44%. For the same compound, the EC50 ([2]; Agonist Mode, −E2) was 97.3 ± 46.9 nM, the EC50 ([2]; Antagonist Mode, +E2) was 125 ± 35.5 nM and the “Percent inhibition compared to vehicle” value ([3]; Agonist Mode, −E2) was 49%. The “Efficacy (Emax)” value ([3]; Agonist Mode, −E2) was 3.35 ± 0.07, the “Percent inhibition compared to vehicle” value ([3]; Antagonist Mode, +E2) was 52% and the “Efficacy (Emax)” value ([3]; Antagonist Mode, +E2) was 3.00 ± 0.18. For the same compound, the EC50 ([3]; Agonist Mode, −E2) was 18.6 ± 7.11 nM, the EC50 ([3]; Antagonist Mode, +E2) was 76.2 ± 21.5 nM and the EC50 ([4]; Agonist Mode, −E2) was 1.3 ± 0.232 nM. For the same compound, the EC50 ([4]; Antagonist Mode, +E2) was 8.38 ± 3.31 nM, the “Percent inhibition compared to vehicle” value ([4]; Agonist Mode, −E2) was 59% and the “Efficacy (Emax)” value ([4]; Agonist Mode, −E2) was 1.74 ± 0.24. For the same compound, the “Percent inhibition compared to vehicle” value ([4]; Antagonist Mode, +E2) was 76%, the “Efficacy (Emax)” value ([4]; Antagonist Mode, +E2) was 1.72 ± 0.38 and the “Percent inhibition compared to vehicle” value ([5]; Agonist Mode, −E2) was 57%. The “Efficacy (Emax)” value ([5]; Agonist Mode, −E2) was 3.54 ± 0.45, the “Percent inhibition compared to vehicle” value ([5]; Antagonist Mode, +E2) was 59% and the “Efficacy (Emax)” value ([5]; Antagonist Mode, +E2) was 3.74 ± 0.53. It also gave an EC50 ([5]; Agonist Mode, −E2) of 18.2 ± 3.29 nM, an EC50 ([5]; Antagonist Mode, +E2) of 41.9 ± 8.25 nM and an EC50 ([6]; Agonist Mode, −E2) of 2.22 ± 0.55 nM. For the same compound, the EC50 ([6]; Antagonist Mode, +E2) was 9.5 ± 3.61 nM, the “Percent inhibition compared to vehicle” value ([6]; Agonist Mode, −E2) was 61% and the “Efficacy (Emax)” value ([6]; Agonist Mode, −E2) was 1.67 ± 0.15. For the same compound, the “Percent inhibition compared to vehicle” value ([6]; Antagonist Mode, +E2) was 76%, the “Efficacy (Emax)” value ([6]; Antagonist Mode, +E2) was 1.56 ± 0.04 and the “Percent inhibition compared to vehicle” value ([7]; Agonist Mode, −E2, 5-Day Incubation) was 50%. For the same compound, the “Efficacy (Emax)” value ([7]; Agonist Mode, −E2, Day 5 relative to Day 0) was 1.58 ± 0.16, the “Percent inhibition compared to vehicle” value ([7]; Antagonist Mode, +E2, 5-Day Incubation) was 72% and the “Efficacy (Emax)” value ([7]; Antagonist Mode, +E2, Day 5 relative to Day 0) was 1.69 ± 0.10. For the same compound, the EC50 ([7]; MCF7, Agonist Mode, −E2, read-out: Potency (EC50; nM)) was 0.713 ± 0.487 nM, the EC50 ([7]; MCF7, read-out: Potency (EC50; nM), Antagonist Mode, +E2) was 7.37 ± 3.93 nM and the “Percent inhibition compared to vehicle” value ([8]; Agonist Mode, −E2) was 47%. The “Efficacy (Emax)” value ([8]; Agonist Mode, −E2) was 3.61 ± 0.24, the “Percent inhibition compared to vehicle” value ([8]; Antagonist Mode, +E2) was 45% and the “Efficacy (Emax)” value ([8]; Antagonist Mode, +E2) was 3.77 ± 0.48. The EC50 ([8]; Agonist Mode, −E2) was 10.4 ± 6.52 nM and the EC50 ([8]; Antagonist Mode, +E2) was 15.6 ± 6.9 nM.

Source: patent US9855270B2, “Methods and compositions for modulating estrogen receptor mutants” (priority 2014, dated 2018)
